{
  "source": "ChEMBL document CHEMBL1201862",
  "about": "“PubChem BioAssay data set” (2004)",
  "key": {"[1]": {"molecular_target": "T1, Caspase-3 (Homo sapiens, UniProt P42574)", "T1 sequence (P42574 whole entry)": "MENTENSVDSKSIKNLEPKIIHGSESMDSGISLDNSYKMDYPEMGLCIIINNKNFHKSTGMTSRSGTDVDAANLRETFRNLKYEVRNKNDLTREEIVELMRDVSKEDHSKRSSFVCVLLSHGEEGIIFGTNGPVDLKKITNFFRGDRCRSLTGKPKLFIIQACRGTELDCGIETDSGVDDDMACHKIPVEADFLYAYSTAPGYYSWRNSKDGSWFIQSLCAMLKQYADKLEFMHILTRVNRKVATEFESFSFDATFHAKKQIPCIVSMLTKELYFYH", "type": "functional"}, "[2]": {"molecular_target": "T2, Sentrin-specific protease 7 (Homo sapiens, UniProt Q9BQF6)", "T2 sequence (Q9BQF6 whole entry)": "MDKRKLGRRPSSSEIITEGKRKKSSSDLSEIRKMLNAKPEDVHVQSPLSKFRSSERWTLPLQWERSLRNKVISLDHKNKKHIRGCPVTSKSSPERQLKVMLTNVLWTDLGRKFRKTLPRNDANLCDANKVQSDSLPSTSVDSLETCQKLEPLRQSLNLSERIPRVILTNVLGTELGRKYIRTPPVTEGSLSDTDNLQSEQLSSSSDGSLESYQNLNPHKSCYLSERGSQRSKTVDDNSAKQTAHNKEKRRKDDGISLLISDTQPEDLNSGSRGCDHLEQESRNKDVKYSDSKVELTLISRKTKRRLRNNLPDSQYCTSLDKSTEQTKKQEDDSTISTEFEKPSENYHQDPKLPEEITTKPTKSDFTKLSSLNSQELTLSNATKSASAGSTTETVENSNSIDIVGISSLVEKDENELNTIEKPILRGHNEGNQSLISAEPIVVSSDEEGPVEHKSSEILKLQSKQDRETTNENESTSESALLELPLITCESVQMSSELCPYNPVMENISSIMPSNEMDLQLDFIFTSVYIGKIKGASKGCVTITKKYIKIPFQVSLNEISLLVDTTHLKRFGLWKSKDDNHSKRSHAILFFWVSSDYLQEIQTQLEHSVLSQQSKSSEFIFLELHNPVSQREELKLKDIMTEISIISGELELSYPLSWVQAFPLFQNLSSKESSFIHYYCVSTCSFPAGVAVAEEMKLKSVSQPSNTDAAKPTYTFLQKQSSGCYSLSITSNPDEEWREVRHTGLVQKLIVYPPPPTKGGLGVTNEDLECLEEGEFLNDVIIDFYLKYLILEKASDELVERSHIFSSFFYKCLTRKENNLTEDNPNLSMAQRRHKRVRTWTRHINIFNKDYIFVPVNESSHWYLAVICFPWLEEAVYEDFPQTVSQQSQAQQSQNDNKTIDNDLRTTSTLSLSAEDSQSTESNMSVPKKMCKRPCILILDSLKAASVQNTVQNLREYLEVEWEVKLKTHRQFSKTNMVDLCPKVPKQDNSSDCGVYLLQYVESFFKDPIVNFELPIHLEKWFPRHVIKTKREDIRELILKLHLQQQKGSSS", "type": "functional"}, "[3]": {"molecular_target": "T3, Endoribonuclease toxin MazF (Escherichia coli K-12, UniProt P0AE70)", "T3 sequence (P0AE70 whole entry)": "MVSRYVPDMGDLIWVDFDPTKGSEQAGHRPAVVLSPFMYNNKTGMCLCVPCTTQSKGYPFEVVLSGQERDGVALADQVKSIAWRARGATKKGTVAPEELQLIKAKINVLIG", "test": "MazF toxin RNase activators, dose response, biochemical, fluorescence, single-stranded RNA substrate, uHTS hits (AID 588481)", "type": "functional"}, "[4]": {"system": "INS1", "test": "beta cell apoptosis inhibitors, cytokine rescue, dose response, luminescence, retest (AID 449756);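 also: cell death triggered by IL-1 beta plus TNF-alpha plus IFN-gamma mixture; protective hits raise ATP signal compared with cytokine alone wells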", "type": "functional, cell-based", "details": "Rattus norvegicus"}, "[5]": {"molecular_target": "Genome polyprotein (dengue virus type 2, UniProt P29990)", "sequence (P29990 2492-3391 limits assumed)": "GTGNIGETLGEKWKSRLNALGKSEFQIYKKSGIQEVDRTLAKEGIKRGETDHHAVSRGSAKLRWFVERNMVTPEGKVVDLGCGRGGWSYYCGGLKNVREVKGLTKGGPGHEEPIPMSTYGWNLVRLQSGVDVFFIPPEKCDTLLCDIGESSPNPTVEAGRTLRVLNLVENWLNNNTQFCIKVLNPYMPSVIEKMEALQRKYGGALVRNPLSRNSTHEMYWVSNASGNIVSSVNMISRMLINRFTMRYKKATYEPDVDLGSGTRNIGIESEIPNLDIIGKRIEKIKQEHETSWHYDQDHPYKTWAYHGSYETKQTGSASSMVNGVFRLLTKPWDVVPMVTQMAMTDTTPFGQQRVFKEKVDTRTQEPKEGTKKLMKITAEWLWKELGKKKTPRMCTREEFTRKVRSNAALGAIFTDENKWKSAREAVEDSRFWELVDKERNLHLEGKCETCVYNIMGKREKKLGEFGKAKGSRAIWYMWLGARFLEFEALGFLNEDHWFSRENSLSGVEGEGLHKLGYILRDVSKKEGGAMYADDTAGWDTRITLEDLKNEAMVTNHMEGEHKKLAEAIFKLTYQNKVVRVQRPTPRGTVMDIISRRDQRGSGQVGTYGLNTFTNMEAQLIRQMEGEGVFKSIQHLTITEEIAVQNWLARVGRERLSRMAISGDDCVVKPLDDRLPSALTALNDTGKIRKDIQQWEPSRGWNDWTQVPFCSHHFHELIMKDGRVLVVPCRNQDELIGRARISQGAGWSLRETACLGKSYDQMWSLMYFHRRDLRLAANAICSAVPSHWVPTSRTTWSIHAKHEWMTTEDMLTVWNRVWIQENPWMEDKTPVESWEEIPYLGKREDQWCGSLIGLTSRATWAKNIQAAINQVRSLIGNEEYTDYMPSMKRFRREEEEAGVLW", "test": "Dengue-2 NS5 methyltransferase inhibitors, primary screen, biochemical, confirmation dose response (AID 588689)", "type": "functional"}, "[6]": {"molecular_target": "T4, Microphthalmia-associated transcription factor (Homo sapiens, UniProt O75030)", "T4 sequence (O75030 whole entry)": "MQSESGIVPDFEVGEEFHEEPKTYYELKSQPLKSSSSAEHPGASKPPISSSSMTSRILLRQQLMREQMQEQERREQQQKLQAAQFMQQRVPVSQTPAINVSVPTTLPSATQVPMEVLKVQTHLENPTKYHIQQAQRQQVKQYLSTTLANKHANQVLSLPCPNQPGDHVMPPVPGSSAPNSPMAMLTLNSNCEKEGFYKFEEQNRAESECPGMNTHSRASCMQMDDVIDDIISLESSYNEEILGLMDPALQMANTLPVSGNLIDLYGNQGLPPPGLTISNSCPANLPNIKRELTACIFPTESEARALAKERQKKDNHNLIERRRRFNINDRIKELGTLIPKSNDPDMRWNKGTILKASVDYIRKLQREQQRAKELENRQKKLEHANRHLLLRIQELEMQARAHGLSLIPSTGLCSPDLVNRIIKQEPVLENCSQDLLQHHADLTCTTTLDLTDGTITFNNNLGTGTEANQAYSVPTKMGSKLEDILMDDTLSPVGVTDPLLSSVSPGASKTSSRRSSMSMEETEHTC", "test": "TRPM1 promoter luciferase signal decrease, dose response, MITF inhibitor project, cell-based, SK-MEL-5, cherry-picked, set 3 (AID 493073)", "type": "functional"}, "[7]": {"molecular_target": "Induced myeloid leukemia cell differentiation protein Mcl-1 (Homo sapiens, UniProt Q07820)", "sequence (Q07820 whole entry)": "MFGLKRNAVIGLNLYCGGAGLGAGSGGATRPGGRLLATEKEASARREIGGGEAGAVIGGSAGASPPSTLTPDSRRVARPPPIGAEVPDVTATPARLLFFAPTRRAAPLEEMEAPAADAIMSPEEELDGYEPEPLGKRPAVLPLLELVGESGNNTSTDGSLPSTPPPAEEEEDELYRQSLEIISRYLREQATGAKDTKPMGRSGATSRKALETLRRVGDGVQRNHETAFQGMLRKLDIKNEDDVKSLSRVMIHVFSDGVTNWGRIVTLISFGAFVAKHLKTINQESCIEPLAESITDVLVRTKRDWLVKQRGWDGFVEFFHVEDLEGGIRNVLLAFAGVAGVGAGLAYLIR", "type": "functional"}, "[8]": {"molecular_target": "Glucose-6-phosphate 1-dehydrogenase (Homo sapiens, UniProt P11413)", "sequence (P11413 whole entry)": "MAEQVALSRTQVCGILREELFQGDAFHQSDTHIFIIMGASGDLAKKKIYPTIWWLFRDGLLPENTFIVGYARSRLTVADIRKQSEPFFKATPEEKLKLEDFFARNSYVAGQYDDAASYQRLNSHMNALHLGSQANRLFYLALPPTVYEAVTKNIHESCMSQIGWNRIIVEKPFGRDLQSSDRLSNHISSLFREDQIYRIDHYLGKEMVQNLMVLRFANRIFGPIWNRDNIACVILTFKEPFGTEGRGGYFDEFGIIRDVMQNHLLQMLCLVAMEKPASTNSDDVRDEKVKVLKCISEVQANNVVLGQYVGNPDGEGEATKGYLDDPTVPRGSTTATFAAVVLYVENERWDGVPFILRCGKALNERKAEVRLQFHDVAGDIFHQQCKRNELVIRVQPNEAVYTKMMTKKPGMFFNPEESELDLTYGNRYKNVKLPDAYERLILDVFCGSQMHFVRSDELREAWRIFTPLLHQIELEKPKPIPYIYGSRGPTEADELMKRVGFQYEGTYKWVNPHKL", "test": "human G6PD enzyme inhibitors, dose response, selectivity assay for P. falciparum G6PD inhibitor project, biochemical, fluorescence (AID 504792)", "type": "functional"}},
  "note": "Activity calls are given as the source filed them.",
  "data": [
    {"compound": "CC(C)=CCC1=C(OCC(=O)O)C(=O)c2ccccc2C1=O", "values": [
      {"measurement": "IC50", "setting": "[1]", "result": "15 µM (active)"},
      {"measurement": "IC50", "setting": "[2]", "result": "3.97 µM (active)"}
    ]},
    {"compound": "Cc1[nH][nH]c(=O)c1C(c1c(C)[nH][nH]c1=O)c1cn(Cc2ccccc2Cl)c2ccccc12", "values": [
      {"measurement": "EC50", "setting": "[3]", "result": "> 99 µM (inactive)"}
    ]},
    {"compound": "Cc1cccc(NC2=C(NC(=O)c3ccccc3)C(=O)c3ccccc3C2=O)c1", "values": [
      {"measurement": "AC50", "setting": "[4]", "result": "7.52 µM (active)"},
      {"measurement": "IC50", "setting": "[5]", "result": "58.4 µM (active)"},
      {"measurement": "AC50", "setting": "[6]", "result": "9.99 µM (active)"},
      {"measurement": "IC50", "setting": "[7]", "result": "2.86 µM (active)"},
      {"measurement": "IC50", "setting": "[8]", "result": "> 80 µM (inactive)"}
    ]}
  ]
}
